Laboratory results from patent US20140206682A1, “COMPOUNDS AND COMPOSITIONS AS PDGFR KINASE INHIBITORS” (NOVARTIS PHARMACEUTICALS UK LIMITED, priority 2011, published 2014).
pIC50: −log10 of the molar value.

Tested on: PDGFR
Assay: Rat A10 cell proliferation assay
Type: cell-based
Conditions: Rat A10 cells, recombinant rat PDGF-BB, CellTiter-Glo after 68 hours
Method in brief: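 Rat A10 cells in DMEM with 1% FBS and 10 ng/mL rat PDGF-BB, preincubated 4 h at 37 °C, then exposed to 3-fold serially diluted compound for 68 h. Viability/proliferation read as CellTiter-Glo luminescence.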

Row | SMILES | pIC50 (Table 2) | pIC50 (Table 1)
1 | O=C(N[C@@H]1c2ccccc2C[C@@H]1O)c1ccc(F)c(NC(=O)c2cnc3ccc(C(F)(F)F)cn23)c1 (stereo in doubt) [F58, N-(2-fluoro-5-{[(1R,2S)-2-hydroxy-2,3-dihydro-1H-inden-1-yl]carbamoyl}phenyl)-6-(trifluoromethyl)imidazo[1,2-a]pyridine-3-carboxamide] | 6.23 | –
2 | O=C(N[C@@H]1CCCC[C@@H]1O)c1ccc(F)c(NC(=O)c2cnc3ccccn23)c1 [F11, N-(2-fluoro-5-{[(1R,2S)-2-hydroxycyclohexyl]carbamoyl}phenyl)imidazo[1,2-a]pyridine-3-carboxamide] | – | 6.70
3 | CCC[C@@H](CO)NC(=O)c1ccc(F)c(NC(=O)c2cnc3ccccn23)c1 [F49, N-(2-fluoro-5-{[(2S)-1-hydroxypentan-2-yl]carbamoyl}phenyl)imidazo[1,2-a]pyridine-3-carboxamide] | 6.43 | –
4 | O=C(N[C@H]1c2ccccc2C[C@@H]1O)c1ccc(F)c(NC(=O)c2cnc3ccccn23)c1 [F8, N-(2-fluoro-5-{[(1S,2S)-2-hydroxy-2,3-dihydro-1H-inden-1-yl]carbamoyl}phenyl)imidazo[1,2-a]pyridine-3-carboxamide] | – | 7.42
5 | O=C(NCC1(O)CCC1)c1ccc(F)c(NC(=O)c2cnc3ccccn23)c1 [F91, N-(2-fluoro-5-{[(1-hydroxycyclobutyl)methyl]carbamoyl}phenyl)imidazo[1,2-a]pyridine-3-carboxamide] | 5.76 | –
6 | COc1ccc2ncc(C(=O)Nc3cc(C(=O)N[C@H]4c5ccccc5C[C@H]4O)ccc3F)n2c1 [F35, N-(2-fluoro-5-{[(1S,2R)-2-hydroxy-2,3-dihydro-1H-inden-1-yl]carbamoyl}phenyl)-6-methoxyimidazo[1,2-a]pyridine-3-carboxamide] | 6.64 | –
7 | Cc1ccc2ncc(C(=O)Nc3cc(C(=O)N[C@H]4CCCC[C@@H]4O)ccc3F)n2c1 [F114, N-(2-fluoro-5-{[(1S,2S)-2-hydroxycyclohexyl]carbamoyl}phenyl)-6-methylimidazo[1,2-a]pyridine-3-carboxamide] | – | 7.15
8 | O=C(NCC1(O)CCCC1)c1cccc(NC(=O)c2cnc3ccccn23)c1 [F69] | 5.73 | –
9 | O=C(N[C@H]1CCCC[C@H]1CO)c1ccc(F)c(NC(=O)c2cnc3ccccn23)c1 [F59] | 6.22 | –
10 | COC[C@H](NC(=O)c1ccc(F)c(NC(=O)c2cnc3cc(C)ccn23)c1)[C@@H](O)c1ccccc1 [F126, N-(2-fluoro-5-{[(1S,2S)-1-hydroxy-3-methoxy-1-phenylpropan-2-yl]carbamoyl}phenyl)-7-methylimidazo[1,2-a]pyridine-3-carboxamide] | – | 8.10
11 | C[C@@H]1CC[C@H](O)[C@H](C)N1CCNC(=O)c1ccc(F)c(NC(=O)c2cnc3cc(-c4ccnn4C)ccn23)c1 [F109, N-[2-fluoro-5-({2-[(2S,3S,6R)-3-hydroxy-2,6-dimethylpiperidin-1-yl]ethyl}carbamoyl)phenyl]-7-(1-methyl-1H-pyrazol-5-yl)imidazo[1,2-a]pyridine-3-carboxamide] | 6.53 | –
12 | O=C(N[C@@H](c1ccccc1)[C@H](O)CO)c1ccc(F)c(NC(=O)c2cnc3ccccn23)c1 [F101, N-(5-{[(1S,2S)-2,3-dihydroxy-1-phenylpropyl]carbamoyl}-2-fluorophenyl)imidazo[1,2-a]pyridine-3-carboxamide] | 6.37 | –
13 | O=C(N[C@@H]1c2ccccc2C[C@@H]1O)c1ccc(F)c(NC(=O)c2cnc3cc(C(F)(F)F)ccn23)c1 (stereo in doubt) [F40, N-(2-fluoro-5-{[(1R,2S)-2-hydroxy-2,3-dihydro-1H-inden-1-yl]carbamoyl}phenyl)-7-(trifluoromethyl)imidazo[1,2-a]pyridine-3-carboxamide] | 6.58 | –
14 | Cc1ccc(C(=O)NC(CO)c2ccccc2)cc1NC(=O)c1cnc2ccccn12 (stereo not shown) [F2, N-{5-[(2-hydroxy-1-phenylethyl)carbamoyl]-2-methylphenyl}imidazo[1,2-a]pyridine-3-carboxamide] | – | 6.84
15 | C[C@H](NC(=O)c1ccc(F)c(NC(=O)c2cnc3ccccn23)c1)[C@@H](O)c1ccccc1 [F95, N-(2-fluoro-5-{[(1S,2S)-1-hydroxy-1-phenylpropan-2-yl]carbamoyl}phenyl)imidazo[1,2-a]pyridine-3-carboxamide] | 6.66 | –
16 | O=C(N[C@H]1Cc2ccccc2[C@H]1O)c1ccc(F)c(NC(=O)c2cnc3ccccn23)c1 (stereo in doubt) [F46, N-(2-fluoro-5-{[(1R,2S)-1-hydroxy-2,3-dihydro-1H-inden-2-yl]carbamoyl}phenyl)imidazo[1,2-a]pyridine-3-carboxamide] | 6.46 | –
17 | O=C(N[C@H]1CCCC[C@@H]1CO)c1ccc(F)c(NC(=O)c2cnc3ccccn23)c1 [F51, N-(2-fluoro-5-{[(1S,2S)-2-(hydroxymethyl)cyclohexyl]carbamoyl}phenyl)imidazo[1,2-a]pyridine-3-carboxamide] | 6.41 | –

Row | SMILES | pIC50 (Table 2) | pIC50 (Table 1)
18 | O=C(N[C@@H]1c2ccccc2C[C@@H]1O)c1ccc(F)c(NC(=O)c2cnc3ccc(-n4ccnc4)cn23)c1 (stereo in doubt) [F72, N-(2-fluoro-5-{[(1R,2S)-2-hydroxy-2,3-dihydro-1H-inden-1-yl]carbamoyl}phenyl)-6-(1H-imidazol-1-yl)imidazo[1,2-a]pyridine-3-carboxamide] | 5.54 | –
19 | O=C(NC[C@@H](O)c1cccc(O)c1)c1ccc(F)c(NC(=O)c2cnc3ccccn23)c1 [F97, N-(2-fluoro-5-{[(2S)-2-hydroxy-2-(3-hydroxyphenyl)ethyl]carbamoyl}phenyl)imidazo[1,2-a]pyridine-3-carboxamide] | 6.18 | –
20 | O=C(N[C@H](CO)c1ccccc1)c1ccc(F)c(NC(=O)c2cnc3ccccn23)c1 [F112, N-(2-fluoro-5-{[(1S)-2-hydroxy-1-phenylethyl]carbamoyl}phenyl)imidazo[1,2-a]pyridine-3-carboxamide] | – | 7.12
21 | Cc1ccc(C(=O)N[C@H]2c3ccccc3C[C@@H]2O)cc1NC(=O)c1cnc2ccccn12 [F23, N-(5-{[(1S,2S)-2-hydroxy-2,3-dihydro-1H-inden-1-yl]carbamoyl}-2-methylphenyl)imidazo[1,2-a]pyridine-3-carboxamide] | – | 7.68
22 | O=C(N[C@H]1CCCC1O)c1ccc(F)c(NC(=O)c2cnc3ccccn23)c1 (stereo in doubt) [F62, N-(2-fluoro-5-{[(1S,2S)-2-hydroxycyclopentyl]carbamoyl}phenyl)imidazo[1,2-a]pyridine-3-carboxamide] | 6.16 | –
23 | Cc1ccc(C(=O)N[C@H]2c3ccccc3C[C@H]2O)cc1NC(=O)c1cnc2ccccn12 [F21, N-(5-{[(1S,2R)-2-hydroxy-2,3-dihydro-1H-inden-1-yl]carbamoyl}-2-methylphenyl)imidazo[1,2-a]pyridine-3-carboxamide] | – | 7.02
24 | COC[C@H](NC(=O)c1ccc(F)c(NC(=O)c2cnc3ccccn23)c1)[C@@H](O)c1ccccc1 [F117, N-(2-fluoro-5-{[(1S,2S)-1-hydroxy-3-methoxy-1-phenylpropan-2-yl]carbamoyl}phenyl)imidazo[1,2-a]pyridine-3-carboxamide] | – | 7.89
25 | Cc1ccc2ncc(C(=O)Nc3cc(C(=O)N[C@@H]4c5ccccc5C[C@@H]4O)ccc3F)n2c1 [F17, N-(2-fluoro-5-{[(1R,2S)-2-hydroxy-2,3-dihydro-1H-inden-1-yl]carbamoyl}phenyl)-6-methylimidazo[1,2-a]pyridine-3-carboxamide] | – | 7.22
26 | O=C(N[C@@H]1c2ccccc2C[C@@H]1O)c1cccc(NC(=O)c2cnc3ccccn23)c1 (stereo in doubt) [F47, N-(3-{[(1R,2S)-2-hydroxy-2,3-dihydro-1H-inden-1-yl]carbamoyl}phenyl)imidazo[1,2-a]pyridine-3-carboxamide] | 6.45 | –
27 | [2H]c1c([2H])c([2H])n2c(C(=O)Nc3cc(C(=O)N[C@@H]4c5ccccc5C[C@@H]4O)ccc3F)cnc2c1[2H] [F25, N-(2-fluoro-5-{[(1R,2S)-2-hydroxy-2,3-dihydro-1H-inden-1-yl]carbamoyl}phenyl)-5,6,7,8-tetrahydrogenioimidazo[1,2-a]pyridine-3-carboxamide] | – | 7.19
28 | O=C(N[C@H]1CCCC[C@@H]1O)c1ccc(F)c(NC(=O)c2cnc3ccccn23)c1 [F9, N-(2-fluoro-5-{[(1S,2S)-2-hydroxycyclohexyl]carbamoyl}phenyl)imidazo[1,2-a]pyridine-3-carboxamide] | – | 7.15
29 | O=C(N[C@H]1c2ccccc2C[C@H]1O)c1cccc(NC(=O)c2cnc3ccccn23)c1 [F68, N-(3-{[(1S,2R)-2-hydroxy-2,3-dihydro-1H-inden-1-yl]carbamoyl}phenyl)imidazo[1,2-a]pyridine-3-carboxamide] | 5.82 | –
30 | Cc1ccc2ncc(C(=O)Nc3cc(C(=O)N[C@@H]4c5cc(F)ccc5C[C@@H]4O)ccc3F)n2c1 [F29, N-(2-fluoro-5-{[(1R,2S)-6-fluoro-2-hydroxy-2,3-dihydro-1H-inden-1-yl]carbamoyl}phenyl)-6-methylimidazo[1,2-a]pyridine-3-carboxamide] | – | 6.98
31 | CC[C@@H](CO)NC(=O)c1cccc(NC(=O)c2cnc3ccccn23)c1 [F79, N-(3-{[(2S)-1-hydroxybutan-2-yl]carbamoyl}phenyl)imidazo[1,2-a]pyridine-3-carboxamide] | < 5.00 | –
32 | COC[C@H](NC(=O)c1ccc(F)c(NC(=O)c2cnc3ccccn23)c1)[C@@H](O)c1ccccc1 [F118, N-(2-fluoro-5-{[(1S,2S)-1-hydroxy-3-methoxy-1-phenylpropan-2-yl]carbamoyl}phenyl)imidazo[1,2-a]pyridine-3-carboxamide] | – | 7.39
33 | CCC[C@@H](CO)NC(=O)c1cccc(NC(=O)c2cnc3ccccn23)c1 [F57, N-(3-{[(2S)-1-hydroxypentan-2-yl]carbamoyl}phenyl)imidazo[1,2-a]pyridine-3-carboxamide] | 6.28 | –
34 | O=C(N[C@H]1c2ccccc2C[C@H]1O)c1ccc(F)c(NC(=O)c2cnc3ccc(COCC(F)(F)F)cn23)c1 [F70, N-(2-fluoro-5-{[(1S,2R)-2-hydroxy-2,3-dihydro-1H-inden-1-yl]carbamoyl}phenyl)-6-[(2,2,2-trifluoroethoxy)methyl]imidazo[1,2-a]pyridine-3-carboxamide] | 5.68 | –
